pEC50, pIC50: −log10 of the molar value.
Tests used:
T-47D [1] = assay: Caspase cascade activation assay (fluorogenic N-(Ac-DEVD)-N'-ethoxycarbonyl-R110 substrate) in T-47D cells; type: cell-based, Human; conditions: 48 h incubation; for Caspase Activity Ratio: ratio of net RFU of compound to control; for pEC50: Homo sapiens, T47D, read-out: Caspase Potency EC50
Protocol: Human breast cancer cell lines T-47D and ZR-75-1 were grown according to media component mixtures designated by American Type Culture Collection +10% FCS (Invitrogen Corporation), in a 5% CO2—95% humidity incubator at 37° C. T-47D and ZR-75-1 cells were maintained at a cell density between 50 and 80% confluency at a cell density of 0.1 to 0.6×10^6 cells/mL. Cells were harvested at 600×g and resuspended at 0.65×10^6 cells/mL into appropriate media +10% FCS. An aliquot of […] of cells was added to a well of a […] microtiter plate containing 2.5 μl of a 10% DMSO in RPMI-1640 media solution containing 0.16 to 100 μM of 5-(3-chloro-thiophen-2-yl)-3-(4-trifluoromethyl-phenyl)-[1,2,4]-oxadiazole or other test compound (0.016 to 10 μM final). An aliquot of 22.5 μL of cells was added to a well of a […] microtiter plate containing 2.5 μl of a 10% DMSO in RPMI-1640 media solution without test compound as the control sample. The samples were mixed by agitation and then incubated at 37° C. for 48 h in a 5% CO2—95% humidity incubator. After incubation, the samples were removed from the incubator and 25 μL of a solution containing 14 μM of N-(Ac-DEVD)-N′-ethoxycarbonyl-R110 (SEQ ID No.:1) fluorogenic substrate (Maxim, Inc.; WO99/18856), 20% sucrose (Sigma), 20 mM DTT (Sigma), 200 mM NaCl (Sigma), 40 mM Na PIPES buffer pH 7.2 (Sigma), and 500 μg/mL lysolecithin (Calbiochem) was added. The samples were mixed by agitation and incubated at room temperature. Using a fluorescent plate reader (Model SpectraMax Gemini, Molecular Devices), an initial reading (T=0) was made approximately 1-2 min after addition of the substrate solution, employing excitation at 485 nm and emission at 530 nm, to determine the background fluorescence of the control sample. After the 3 h incubation, the samples were read for fluorescence as above (T=3 h).
The Relative Fluorescence Unit values (RFU) were used to calculate the sample readings as follows: RFU(T=3 h)−Control RFU(T=0)=Net RFU(T=3 h)
The activity of caspase cascade activation was determined by the ratio of the net RFU value for 5-(3-chloro-thiophen-2-yl)-3-(4-trifluoromethyl-phenyl)-[1,2,4]-oxadiazole or other test compound to that of control samples. The EC50 (nM) was determined by a sigmoidal dose-response calculation (Prism 2.0, GraphPad Software Inc.).

DLD-1 = assay: Cell proliferation assay (GI50), DLD-1; type: cell-based; conditions: Homo sapiens; DLD-1, colon cancer cell line, 48 h
ZR-75-1 = assay: Cell proliferation assay (GI50), ZR-75-1; type: cell-based; conditions: Homo sapiens, ZR75-1, 48 h
Protocol: [The source words this procedure for another cell line and reports this cell line under the same test.] (§1) T-47D and SKBr-3 cells were grown and harvested as in Example 121. An aliquot of 90 μL of cells (2. 2×10^4 cells/mL) was added to a well of a 96-well microtiter plate containing 10 μl of a 10% DMSO in RPMI-1640 media solution containing 1 nM to 100 μM of 5-(3-chloro-thiophen-2-yl)-3-(4-trifluoromethyl-phenyl)-[1,2,4]-oxadiazole (0.1 nM to 10 μM final). An aliquot of 90 μL of cells was added to a well of a 96-well microtiter plate containing 10 μL of a 10% DMSO in RPMI-1640 media solution without compound as the control sample for maximal cell proliferation (AMax). The samples were mixed by agitation and then incubated at 37° C. for 48 h in a 5% CO2—95% humidity incubator. After incubation, the samples were removed from the incubator and 20 μL of CellTiter 96 AQUEOUS One Solution Cell Proliferation™ reagent (Promega) was added. The samples were mixed by agitation and incubated at 37° C. for 2-4 h in a 5% CO2—95% humidity incubator. Using an absorbance plate reader (Model 1420 Wallac Instruments), an initial reading (T=0) was made approximately 1-2 min after addition of the solution, employing absorbance at 490 nm. This determines the possible background absorbance of the test compounds. No absorbance for 5-(3-chloro-thiophen-2-yl)-3-(4-trifluoromethyl-phenyl)-[1,2,4]-oxadiazole was found at 490 nm. After the 2-4 h incubation, the samples were read for absorbance as above (ATest). […]

T-47D [2] = assay: Cell proliferation assay (GI50), T-47D; type: cell-based; conditions: Homo sapiens, T47D, 48 h
Protocol: as §1

NCI-H23 = assay: Cell proliferation assay (GI50), NCI-H23; type: cell-based; conditions: Homo sapiens; NCI-H23, non-breast cancer cell line, 48 h
Protocol: [The source words this procedure for another cell line and reports this cell line under the same test.] as §1

K562 = assay: Cell proliferation assay (GI50), K562; type: cell-based; conditions: Homo sapiens; K562, non-breast cancer cell line, 48 h
Protocol: [The source words this procedure for another cell line and reports this cell line under the same test.] as §1

PC-3 = assay: Cell proliferation assay (GI50), PC-3; type: cell-based; conditions: Homo sapiens; PC-3, non-breast cancer cell line, 48 h
Protocol: [The source words this procedure for another cell line and reports this cell line under the same test.] as §1

SK-Br-3 = assay: Cell proliferation assay (GI50), SK-Br-3; type: cell-based; conditions: Homo sapiens; SK-Br-3, breast cancer cell line, 48 h
Protocol: as §1

MX-1 = assay: Cell proliferation assay (GI50), MX-1; type: cell-based; conditions: Homo sapiens, MX1; MX-1, breast cancer cell line, 48 h
Protocol: [The source words this procedure for another cell line and reports this cell line under the same test.] as §1

SW-620 = assay: Cell proliferation assay (GI50), SW-620; type: cell-based; conditions: Homo sapiens; SW-620, non-breast cancer cell line, 48 h
Panc-1 = assay: Cell proliferation assay (GI50), Panc-1; type: cell-based; conditions: Homo sapiens; Panc-1, non-breast cancer cell line, 48 h
Protocol: [The source words this procedure for another cell line and reports this cell line under the same test.] as §1

MX-1 cells = assay: Clonogenic survival of MX-1 solid tumor cells; type: cell-based; conditions: Homo sapiens, MX1, 48 h treatment, colonies counted after 7-10 days, read-out: IC50 of colony forming ability (clonogenic survival)
Protocol: MX-1 cells were grown according to the conditions recommended by American Type Culture Collection. In a well of a 96 well plate, 30,000 cells were seeded and treated with compound at the indicated concentrations for 48 h in a 5% CO2—95% humidity incubator at 37° C. Control wells were treated with the same amount of solvent (DMSO) as the compound samples. After the indicated treatment time, the supernatant was removed to a sterile culture tube and the wells washed with phosphate buffered saline, and the adherent cells trypsinized for 5 min. The trypsinzed cells were added to the culture supernatant, cells were collected (1,200 rpm, 10 min), washed with phosphate buffered saline, and resupended in fresh media. The cells were counted for trypan blue negative cells, and the cells diluted with fresh media to 1,000 cells/mL. To a well of a 24-well plate, 0.1 mL of the cell suspension was added along with 1 mL of fresh media (cell suspensions were passed through a 22G needle several times just before plating to form single cell suspensions). Plates are incubated in a 5% CO2—95% humidity incubator at 37° C. for 7-10 days. Colonies are counted when the sizes reached greater than 50 cells per colony. […] Colonies are rinsed with water and the colonies counted and the fraction surviving expressed as the percentage of the number of control colonies.

| SMILES | pEC50 (T-47D [1]) | GI50 (DLD-1) | GI50 (T-47D [2]) | GI50 (NCI-H23) | GI50 (K562) | GI50 (PC-3) | GI50 (SK-Br-3) | GI50 (SW-620) | GI50 (Panc-1) | Caspase Activity Ratio (T-47D [1]) | GI50 (ZR-75-1) | GI50 (MX-1) | pIC50 (MX-1 cells) |
| --- | --- | --- | --- | --- | --- | --- | --- | --- | --- | --- | --- | --- | --- |
| Clc1ccc(-c2noc(-c3sccc3Cl)n2)cc1 [Example 1, 3-(4-Chloro-phenyl)-5-(3-chloro-thiophen-2-yl)-[1,2,4]-oxadiazole] | 5.44 | 35 nM | 250 nM | > 10000 nM | > 10000 nM | > 10000 nM | 20 nM | > 10000 nM | > 10000 nM | 16.9 | 200 nM | 300 nM |  |
| Clc1ccc(-c2noc(-c3sccc3Cl)n2)c(Cl)c1 [Example 7, 5-(3-Chloro-thiophen-2-yl)-3-(2,4-dichloro-phenyl)-[1,2,4]-oxadiazole] | 6.06 |  |  |  |  |  |  |  |  | 4.1 |  |  |  |
| Fc1ccc(-c2noc(-c3sccc3Cl)n2)cc1 [Example 5, 5-(3-Chloro-thiophen-2-yl)-3-(4-fluoro-phenyl)-[1,2,4]-oxadiazole] | 5.67 | 40 nM | 300 nM | > 10000 nM | > 10000 nM | > 10000 nM | 20 nM | > 10000 nM | > 10000 nM | 19.7 | 400 nM | 400 nM |  |

More lines, in order of rising pEC50 (T-47D [1]), values ahead:

| pEC50 (T-47D [1]) | GI50 (DLD-1) | GI50 (T-47D [2]) | GI50 (NCI-H23) | GI50 (K562) | GI50 (PC-3) | GI50 (SK-Br-3) | GI50 (SW-620) | GI50 (Panc-1) | SMILES | Caspase Activity Ratio (T-47D [1]) | GI50 (ZR-75-1) | GI50 (MX-1) | pIC50 (MX-1 cells) |
| --- | --- | --- | --- | --- | --- | --- | --- | --- | --- | --- | --- | --- | --- |
| 5.27 |  |  |  |  |  |  |  |  | FC(F)(F)c1ccc(-c2noc(-c3sccc3Cl)n2)cc1 [Example 4, 5-(3-Chloro-thiophen-2-yl)-3-(4-trifluoromethyl-phenyl)-[1,2,4]-oxadiazole] | 4.2 |  |  | ~5.98 |
| 5.30 |  |  |  |  |  |  |  |  | O=[N+]([O-])c1ccc(-c2noc(-c3sccc3Cl)n2)cc1 [Example 6, 5-(3-Chloro-thiophen-2-yl)-3-(4-nitro-phenyl)-[1,2,4]-oxadiazole] | 3.8 |  |  |  |
